Consider 15 compounds from patent US5639778A, “Indoletetralins having dopaminergic activity” (Pharmacia & Upjohn Company, priority 1995, dated 1997).

Like-named read-outs stand apart in the source and are kept apart here.

A word on the Ki: it is a measure of affinity in units of concentration, obtained from inhibition or displacement.

Test [1] deals with 5-HTP accumulation in the limbic forebrain (5-HT synthesis rate). In words: 5-HTP accumulation in limbic forebrain of reserpine-pretreated rats. Type of test: in vivo, rat. As to the method:
(§1) Effects on DOPA and 5-HTP accumulation in reserpine -
(§2) The animals were pretreated with reserpine (5 mg/kg, s.c.) 18 hours before the experiment. Test drugs were administered and immediately thereafter the motron activity was measured in photocell motility boxes. The rats were injected with the decarboxylase inhibitor NSD 1015 (100 mg/kg, s.c.) and killed 30 minutes later. The accumulation of DOPA in the striatum, limbic and […] and that of 5-HTP in the limbic forebrain was taken as a measure of the DA and 5-HT synthesis rates, respectively. The accumulation of DOPA in the cortex area was taken as a measure of NA synthesis rate. […] The same theory is valid for 5-HT receptor agonists and antagonists. Dose-response curves were constructed for each compound (4-5 dose levels, n=4) and the half-maximal decrease (ED50) was calculated.
(§3) P=partial decrease; maximal decrease was not reached at the highest dose (shown in brackets). The % decrease from control is also shown. NT=not tested. [drawing 4]

The next test concerns the target T1, dopamine D2 receptor (Rattus norvegicus, UniProt P61169).
T1 construct: from tissue
In words: in vitro affinity for brain dopamine D2 receptor sites, Spiperone. Type of test: binding. The conditions noted are these: non-pretreated. From the text:
(§4) pretreated rats. Also shown are the in vitro affinities for brain
(§5) dopamine (D2, Spiperone) and serotonin (5-HT1A, 8-OH-DPAT)
(§6) receptor sites in non-pretreated rats.

The target of test [2] is T2, serotonin 5-HT1A receptor (Rattus norvegicus, UniProt P19327).
T2 construct: from tissue
T2 sequence (P19327 1-422): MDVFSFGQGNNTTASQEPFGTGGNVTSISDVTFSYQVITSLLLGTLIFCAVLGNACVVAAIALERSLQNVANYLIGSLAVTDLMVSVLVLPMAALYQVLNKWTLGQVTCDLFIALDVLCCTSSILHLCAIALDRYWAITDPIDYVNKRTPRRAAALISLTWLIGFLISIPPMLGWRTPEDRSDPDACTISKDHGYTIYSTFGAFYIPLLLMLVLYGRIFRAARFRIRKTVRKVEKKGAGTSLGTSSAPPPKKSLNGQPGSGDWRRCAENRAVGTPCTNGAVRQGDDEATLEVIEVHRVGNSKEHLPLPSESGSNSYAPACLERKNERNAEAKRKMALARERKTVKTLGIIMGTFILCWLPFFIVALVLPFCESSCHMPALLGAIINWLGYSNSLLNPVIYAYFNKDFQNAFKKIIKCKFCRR
In words: in vitro affinity for brain serotonin 5-HT1A receptor sites, 8-OH-DPAT. The following applies: non-pretreated, read-out: In vitro binding Ki 5HT1A.
Source text: as §4, §5, §6

The subject of test [3] is DOPA accumulation in the striatum (DA synthesis rate). In words: DOPA accumulation in striatum of reserpine-pretreated rats. Type of test: in vivo, rat. The following applies: for ED50: Rattus norvegicus, sc, 0.5 h, read-out: DOPA ED50 Stri. Here is the method: as §1, §2, §3
Test [4] relates to DOPA accumulation in the cortex (NA synthesis rate). In words: DOPA accumulation in cortex of reserpine-pretreated rats. Type of test: in vivo, rat. The conditions noted are these: for DOPA ED50 Cortex. (I/P symbol): s.c., number in brackets = highest dose, μmol/kg; for ED50: Rattus norvegicus, sc, 0.5 h, read-out: DOPA ED50 Cortex. (I/P symbol). Here is the method:
as §1, §2, §3

Test [5] has as its target T3, dopamine D2 receptor (D2CHO cells) (Homo sapiens, UniProt P14416).
T3 construct: expressed in transfected cells; host or cells: CHO cells (D2CHO)
In words: binding experiments using D2CHO cells and Raclopride as the labeled ligand. From the text: *Data from binding experiments using D2CHO cells and Raclopride as the […]

Where [6] appears, read: read-out: In vitro binding Ki D2-spip.
Setting [7] is: D2CHO cells, Raclopride as labeled ligand, read-out: In vitro binding Ki D2 (marked *).
The mark [8] stands for this setting: Rattus norvegicus, sc, 0.5 h, read-out: 5-HTP ED50 Limbic (I/P symbol).

T1 sequence (P61169 whole entry): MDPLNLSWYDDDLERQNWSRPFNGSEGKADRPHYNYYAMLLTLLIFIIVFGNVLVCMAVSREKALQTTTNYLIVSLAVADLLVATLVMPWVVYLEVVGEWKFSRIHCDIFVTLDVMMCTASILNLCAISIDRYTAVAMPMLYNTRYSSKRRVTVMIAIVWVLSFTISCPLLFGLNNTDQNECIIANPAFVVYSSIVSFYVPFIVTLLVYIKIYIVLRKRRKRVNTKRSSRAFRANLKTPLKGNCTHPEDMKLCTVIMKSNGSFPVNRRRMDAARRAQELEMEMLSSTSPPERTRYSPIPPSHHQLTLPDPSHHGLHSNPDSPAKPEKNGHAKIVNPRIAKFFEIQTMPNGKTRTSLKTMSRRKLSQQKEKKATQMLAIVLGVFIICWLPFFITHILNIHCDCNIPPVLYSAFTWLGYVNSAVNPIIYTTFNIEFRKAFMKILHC
T3 sequence (P14416 whole entry): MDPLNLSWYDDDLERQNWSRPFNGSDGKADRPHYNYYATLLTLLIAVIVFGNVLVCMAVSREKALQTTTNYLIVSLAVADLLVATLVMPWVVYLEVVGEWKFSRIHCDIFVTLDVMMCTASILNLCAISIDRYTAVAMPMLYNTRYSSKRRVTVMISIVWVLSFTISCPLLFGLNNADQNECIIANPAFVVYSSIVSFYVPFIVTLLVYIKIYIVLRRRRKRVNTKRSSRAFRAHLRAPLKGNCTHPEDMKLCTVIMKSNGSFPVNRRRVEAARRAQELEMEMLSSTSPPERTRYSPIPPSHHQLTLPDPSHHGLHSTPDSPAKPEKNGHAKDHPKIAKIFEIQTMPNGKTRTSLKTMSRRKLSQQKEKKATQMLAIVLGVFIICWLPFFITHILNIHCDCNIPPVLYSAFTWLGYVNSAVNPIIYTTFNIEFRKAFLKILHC

Turning to `CCCN(CCC)C1CCc2c(ccc3c2NC(=O)C3)C1` (stereo not drawn) [Example 4, 7-Di-n-propylamino-1,3,6,7,8,9-hexahydro-1H-benzo[g]indole-2-one], the ED50 in test [1] (Rattus norvegicus, sc, 0.5 h, s.c., half-maximal decrease, reserpine-pretreated rats, read-out: 5-HTP ED50 Limbic) worked out at 5.8 µmol/kg. Moreover, the figures for the Ki (on dopamine D2 receptor (setting [6]); in test [2]) were 15900 nM and 25300 nM, respectively.
For `CCCN(CCC)C1COc2c(ccc3cc[nH]c23)C1` (stereo not drawn) [Example 5, Di-n-propyl-(1,6,7,8-tetrahydro-9-oxa-1-azacyclopenta[a]naphthylenee-7-yl)amine], the “DOPA Stri. % decrease from control” value in test [3] (highest dose 3.1 μmol/kg s.c.) was determined as 26%. In addition, in test [4], the “DOPA ED50 Cortex. (I/P symbol)” value was “I(50)”. The “5-HTP Limbic % decrease from control” value in test [1] (highest dose 50 μmol/kg s.c.) worked out at 62%. Besides, the inhibition constant (Ki) worked out at 270 nM on dopamine D2 receptor (setting [6]) and 178 nM in test [2].
For the compound `CCCN(CCC)C1CCc2c(ccc3c2NC(=O)C3=O)C1` (stereo not drawn) [Example 1, 7-Di-n-propylamino-6,7,8,9-tetrahydro-1H-benzo[g]indole-2,3-dione], the “DOPA Stri. % decrease from control” value in test [3] (highest dose 50 μmol/kg s.c.) stood at 78%. Moreover, the highest dose tested (ED50 not reached) in test [1] (Rattus norvegicus, sc, 0.5 h, s.c., number in brackets = highest dose, μmol/kg, read-out: 5-HTP ED50 Limbic (I/P symbol)) is 50 µmol/kg. Besides, the figures for the inhibition constant Ki in test [5] (setting [7]) and in test [2] were 3520 nM and 9930 nM, respectively.
Turning to `CCCN(CCC)C1CCc2c(ccc3cc[nH]c23)C1` (stereo not drawn) [Example 2, Di-n-propyl-(6,7,8,9-tetrahydro-1H-benzo[g]indol-7yl)amine], in test [3] (highest dose 50 μmol/kg s.c.), the “DOPA Stri. % decrease from control” value is on record as 48%. Moreover, in test [1] (highest dose 50 μmol/kg s.c.), the “5-HTP Limbic % decrease from control” value came out at 61%. The Ki at dopamine D2 receptor (setting [6]) stood at 320 nM; in test [2], 1120 nM.
On to `CCCN(CCC)C1CCc2cc3[nH]cc(C=O)c3cc2C1` (stereo not drawn) [Example 9, 6-Di-n-propylamino-5,6,7,8-tetrahydro-1H-benzo [f]indole-3-carbaldehyde], for which the “DOPA Stri. % decrease from control” value in test [3] (highest dose 12.5 μmol/kg s.c.) stood at 37%. In addition, the “DOPA Cortex. % decrease from control” value in test [4] (highest dose 12.5 μmol/kg s.c.) amounted to 85%. Further, the ED50 in test [1] (setting [8]) was 12.5 µmol/kg. In test [5] (setting [7]), the Ki stood at 278 nM.
In the case of `CCCN(CCC)C1CCc2c(ccc3ccoc23)C1` (stereo not drawn) [Example 17, Di-n-propyl-(6,7,8,9-tetrahydronaphtho[1,2-b]furan-7-yl)-amine], the ED50 amounted to 1 µmol/kg in test [3] and 33.3 µmol/kg in test [1] (setting [8]). Moreover, the “DOPA Cortex. % decrease from control” value in test [4] (highest dose 33.3 μmol/kg s.c.) is 79%. In test [5], this compound gave a Ki of 205 nM.
For the compound `CCCN(CCC)C1CCc2c(ccc3[nH]ccc23)C1` (single isomer, unassigned; (+)) [7A(+), (+)-Dipropyl-(6,7,8,9-tetrahydro-benzo[e]indol-7-yl)-amine, reference compound], the ED50 in test [3] amounted to 0.12 µmol/kg. Moreover, the “DOPA Cortex. % decrease from control” value in test [4] (highest dose 12.5 μmol/kg s.c.) is 67%. Besides, the “5-HTP Limbic % decrease from control” value in test [1] (highest dose 12.5 μmol/kg s.c.) is 80%. In addition, the Ki on dopamine D2 receptor (In vitro binding Ki D2-spip.) is 35 nM.
For the compound `CCCN(CCC)C1CCc2c(ccc3[nH]cc(C=O)c23)C1` (stereo not drawn) [Example 8, 7-Di-n-propylamino-6,7,8,9-tetrahydro-3H-benzo [e]indole-1-carbaldehyde], the ED50 turned out to be 0.015 µmol/kg in test [3] and 50 µmol/kg in test [1] (setting [8]). Further, the “DOPA Cortex. % decrease from control” value in test [4] (highest dose 0.2 μmol/kg s.c.) came to 57%. Besides, the Ki came out at 16 nM at dopamine D2 receptor (In vitro binding Ki D2-spip.) and 2600 nM in test [2].
For `CCCN(CCC)C1CCc2c(ccc3[nH]ccc23)C1` (stereo not drawn) [Example 7A, Di-n-propyl-(6,7,8,9-tetrahydro-3H-benzo[e]indol-7-yl)amine, reference compound], the ED50 is 0.3 µmol/kg in test [3] and 12.5 µmol/kg in test [4]. Moreover, the “5-HTP Limbic % decrease from control” value in test [1] (highest dose 3.1 μmol/kg s.c.) came to 72%. The values for the Ki (at dopamine D2 receptor (In vitro binding Ki D2-spip.); in test [2]) were 50 nM and 500 nM, respectively.
As for `CCCN(CCC)C1CCc2cc3[nH]ccc3cc2C1` (stereo not drawn) [Example 7, Di-n-propyl-(5,6,7,8-tetrahydro-1H-benzo[f]indol-6-yl)amine], in test [3] (highest dose 50 μmol/kg s.c.), the “DOPA Stri. % decrease from control” value is 48%. The ED50 in test [1] (setting [8]) is 50 µmol/kg. In addition, the Ki on dopamine D2 receptor (setting [6]) stood at 4200 nM; in test [2], 340 nM.
Turning to `CCCN(CCC)[C@H]1CCc2c(ccc3[nH]cc(C=O)c23)[C@H]1C` (relative stereo) [Example 16, cis-7-Dipropylamino-6-methyl-6,7,8,9-tetrahydro-3H-benzo[e]-indole-1-carbaldehyde], the “DOPA Stri. % decrease from control” value in test [3] (highest dose 50 μmol/kg s.c.) was determined as 36%. Further, in test [4], the “DOPA ED50 Cortex. (I/P symbol)” value is on record as “I(50)”. For the same compound, the ED50 in test [1] (setting [8]) turned out to be 50 µmol/kg. In addition, the Ki in test [5] (setting [7]) was 924 nM.
In the case of `CCCN(CCC)C1CCc2c(ccc3[nH]cc(C=O)c23)C1` (single isomer, unassigned; (+)) [8(+), (+)-7-Dipropylamino-6,7,8,9-tetrahydro-3H-benzo[e]indole-1-carbaldehyde], the “DOPA Stri. % decrease from control” value in test [3] (highest dose 0.2 μmol/kg s.c.) amounted to 60%. Also, the ED50 in test [4] and in test [1] (setting [8]) was 0.2 µmol/kg throughout.
`CCCN(CCC)[C@H]1CCc2c(ccc3[nH]ccc23)[C@H]1C` (relative stereo) [Example 15, cis-(6-Methyl-6,7,8,9-tetrahydro-3H-benzo[e]-indol-7-yl)-dipropylamine]: in test [3] (highest dose 50 μmol/kg s.c.), the “DOPA Stri. % decrease from control” value was 35%. Besides, the “DOPA Cortex. % decrease from control” value in test [4] (highest dose 50 μmol/kg s.c.) is 88%. The “5-HTP Limbic % decrease from control” value in test [1] (highest dose 50 μmol/kg s.c.) came to 52%. Further, the Ki worked out at 164 nM in test [5] (setting [7]) and 124 nM in test [2].
`CCCN(CCC)C1CCc2c(ccc3[nH]ccc23)C1` (single isomer, unassigned; (-)) [7A(-), (-)-Dipropyl-(6,7,8,9-tetrahydro-benzo[e]indol-7-yl)-amine, reference compound]: the “DOPA Stri. % decrease from control” value in test [3] (highest dose 25 μmol/kg s.c.) is given as 31%. For the same compound, the “DOPA Cortex. % decrease from control” value in test [4] (highest dose 25 μmol/kg s.c.) was 73%. Further, the “5-HTP Limbic % decrease from control” value in test [1] (highest dose 25 μmol/kg s.c.) is given as 68%. In addition, the inhibition constant (Ki) on dopamine D2 receptor (setting [6]) was 257 nM; in test [2], 1450 nM.
With `CCCN(CCC)C1CCc2c(ccc3[nH]cc(C#N)c23)C1` (stereo not drawn) [Example 10, 7-Di-n-propylamino-6,7,8,9-tetrahydro-3H-benzo[e]indole-1-carbonitrile], the figures for the ED50 in test [3] and in test [1] (setting [8]) were 0.004 µmol/kg and 3.1 µmol/kg, respectively. Also, the “DOPA Cortex. % decrease from control” value in test [4] (highest dose 3.1 μmol/kg s.c.) stood at 79%. For the same compound, in test [5], affinity was put at a Ki of 10.1 nM.
